Data taken from paper PMC4055595, “Pharmacokinetic Compatibility of Ginsenosides and Schisandra Lignans in Shengmai-san: From the Perspective of P-Glycoprotein” (PLoS ONE, 2014).
Read-outs that look alike come from different tables or passages of the source.

Key:
P-gp (MDR1) = P-gp (MDR1) (Homo sapiens, UniProt P08183); assay: Transport of digoxin and ginsenosides across L-MDR1 cell monolayers (efflux ratio); format: in vitro ADME; details: human, read-out: Efflux ratio (Papp BL-AP / Papp AP-BL)
Protocol: (§1) LLC-PK1 cells, a cell line lacking P-gp, and the derived cell line L-MDR1, which over-express human MDR1-encoded P-gp, were grown in minimum essential medium with supplements at 37°C, 5% CO2, and 95% humidity. LLC-PK1 and L-MDR1 cells were seeded at a density of 12×10^6 cells per 150-cm^2 flask and grown for 7 days in medium 199 supplemented with 2 mM glutamine, 10% fetal bovine serum, 10 mg/500 mL of streptomycin, and 10,000 IU/500 mL of penicillin. To ensure a constant expression level of transport protein, L-MDR1 cells were grown in the presence of 640 nM vincristine. Cells were grown as monolayer on polycarbonate membrane filters (Transwell; Costar Corporation, Cambridge, MA) as outlined previously. Transepithelial resistance was measured in each well using a Millicell ERS ohmmeter (Millipore, Bedford, MA); wells registering a resistance of 200 ohms or greater, after correcting for the resistance obtained in control blank wells, were used in the transport experiments.
(§2) The LLC-PK1 and L-MDR1 cells were washed with warm Hank's balanced salt solution HBSS (pH 7.4) twice before transport experiment. HBSS containing verapamil (10 µM), SLE (2.0 and 10.0 µg/mL) or blank HBSS (control) was then loaded into both apical and basolateral chambers. After incubation at 37°C for 1.5 h, GE (100 µg/mL) was added to either the apical or basolateral side to evaluate the transport in absorptive and secretive directions, respectively. The cell monolayer was then incubated for another 2 h. Finally, the concentrations of ginsenosides were determined by LC/MS. All experiments were conducted in triplicate.
(§3) For the transport assay, the apparent permeability (P app, cm/s) in each direction (A→B and B→A) was calculated as follows, where A is the surface area of the membrane inserts (0.0804 cm^2), C 0 is the initial concentration of the compound applied in the donor compartment (2 µM), and △Q is the amount (micromoles) of compound transported over time △t (5 h = 18,000 s): [drawing 1]
(§4) The efflux ratio (ER) was a dimensionless number calculated as the ratio of the apparent permeability in the B→A direction divided by the apparent permeability in the A→B direction. [drawing 2]

[1] = molecular target: T1, human MDR1-encoded P-gp (L-MDR1 cells) (Homo sapiens, UniProt P08183); assay: as above; format: in vitro ADME; details: for Effect of verapamil on efflux ratio / Papp / Effect of SLE on efflux ratio / transport: L-MDR1 cells; for Effect of verapamil on efflux ratio / Papp: 10 µM verapamil; for Effect of SLE on efflux ratio / transport: SLE 2.0 and 10.0 µg/mL; for P-gp substrate classification: summary of transport/uptake in LLC-PK1, L-MDR1 and Caco-2 cells with verapamil
Protocol: as §1, §2, §3, §4

[2] = system: LLC-PK1 cells (lacking P-gp); assay: Transport of digoxin and ginsenosides across LLC-PK1 cell monolayers; format: in vitro ADME; details: for Effect of verapamil on transport (efflux ratio): 10 µM verapamil; for Effect of SLE on transport (AP→BL, BL→AP): SLE 2.0 and 10.0 µg/mL
Protocol: as §1, §2, §3, §4

[3] = system: LLC-PK1 cells (lacking P-gp); assay: Uptake (intracellular accumulation) of digoxin and ginsenosides in LLC-PK1 cells; format: in vitro ADME; details: for Effect of verapamil on intracellular accumulation: 10 µM verapamil; for Effect of SLE on intracellular accumulation: SLE 2.0 and 10.0 µg/mL
Protocol: as §1
(§5) LLC-PK1 and L-MDR1 cells were incubated with SLE (2.0 and 10.0 µg/mL) or verapamil (10 µM) for 1.0 h, and then were washed to discard SLE or verapamil before adding 100 µg/mL of GE. The accumulation of GE lasted for 2 h, and the intracellular concentrations of ginsenosides were measured by LC/MS. All experiments were conducted in triplicate.

[4] = molecular target: T1, human MDR1-encoded P-gp (L-MDR1 cells); assay: Uptake (intracellular concentration) of digoxin and ginsenosides in L-MDR1 cells; format: in vitro ADME
Protocol: as §1, §5

[5] = Transport of digoxin and ginsenosides across Caco-2 cell monolayer (efflux ratio); format: in vitro ADME, human; details: human, Caco-2, pH 7.4
Protocol: (§6) Caco-2 cells were purchased from American Type Culture Collection (Manassas, VA), and were routinely cultured in Dulbecco's modified Eagle's medium supplemented with 10% fetal bovine serum, 1% nonessential amino acids, 1 mM sodium pyruvate, and 100 U/mL penicillin and streptomycin (Invitrogen, Carlsbad, CA). The cells were grown in an atmosphere of 5% CO2 at 37°C, and cell medium was changed every other day. Cells were seeded at a density of 4×10^4 cells per well in 24-well microporous polycarbonate insert filter plates (0.4-µm pore size) (Corning Costar plates; Corning Life Sciences, Lowell, MA) and grown for 15 days in Caco-2 growth medium. The medium was replaced every 3 to 4 days. Before running the assay, the culture medium was replaced by HBSS buffer supplemented with 10 mM Hepes and 20 mM glucose.
(§7) Caco-2 cells with a density of 1.2×10^5 cells/insert were seeded on a permeable polycarbonate insert (Millicell cell culture inserts, 0.4 µm pore size, 12 mm diameter; Millipore Corporation) in 24-well tissue culture plates and were used for the experiment 18 to 21 days after seeding. [^14C]Mannitol permeability and transepithelial electrical resistance measurements (Millicell-ERS epithelial volt-ohm meter; Millipore Corporation) were used to evaluate the integrity of Caco-2 cell monolayer. The monolayer used in transport studies had transepithelial electrical resistance values exceeding 600 Ω·cm^2, and the leakage of mannitol was less than 0.3% of the dose/h. Before transport initiation studies, the cell monolayer was first washed with warm HBSS (pH 7.4) twice. HBSS containing SLE (2.0 and 10.0 µg/mL) or 1% ethanol (control) was then loaded into both apical and basolateral chambers. After incubation at 37°C for 1.5 h, 100 µg/mL of GE was added to either the apical or basolateral side to evaluate the transport in absorptive and secretory directions, and the cell monolayer was incubated for another 2 h. 10 µM verapamil was used as a positive control inhibitor. At the designated time point, samples were taken from the receiving chamber for analysis. Ginsenosides were determined by LC-MS. All experiments were conducted in triplicate.
as §3, §4

Caco-2 cell monolayer = assay: as above; format: in vitro ADME, human
Protocol: as §6, §7, §3, §4

Caco-2 cells = assay: Uptake of digoxin and ginsenosides in Caco-2 cells; format: in vitro ADME, human
Protocol: as §6
as §5, with “Caco-2” for “LLC-PK1 and L-MDR1”, “h. Then the cells” for “h, and then”, “washed with Hank's” for “washed”, “the addition” for “adding 100 µg/mL”, “GE (100 µg/mL).” for “GE.”, “ginsenosides” for “GE”

[6] = LLC-PK1, pH 7.4, L-MDR1 cells, control (absence of verapamil), GE 100 µg/mL, 2 h
[7] = LLC-PK1, pH 7.4, with verapamil 10 µM, L-MDR1 cells, presence of 10 µM verapamil
[8] = LLC-PK1, pH 7.4, L-MDR1 cells, presence of 10 µM verapamil

P-gp (MDR1), sequence (P08183 whole entry): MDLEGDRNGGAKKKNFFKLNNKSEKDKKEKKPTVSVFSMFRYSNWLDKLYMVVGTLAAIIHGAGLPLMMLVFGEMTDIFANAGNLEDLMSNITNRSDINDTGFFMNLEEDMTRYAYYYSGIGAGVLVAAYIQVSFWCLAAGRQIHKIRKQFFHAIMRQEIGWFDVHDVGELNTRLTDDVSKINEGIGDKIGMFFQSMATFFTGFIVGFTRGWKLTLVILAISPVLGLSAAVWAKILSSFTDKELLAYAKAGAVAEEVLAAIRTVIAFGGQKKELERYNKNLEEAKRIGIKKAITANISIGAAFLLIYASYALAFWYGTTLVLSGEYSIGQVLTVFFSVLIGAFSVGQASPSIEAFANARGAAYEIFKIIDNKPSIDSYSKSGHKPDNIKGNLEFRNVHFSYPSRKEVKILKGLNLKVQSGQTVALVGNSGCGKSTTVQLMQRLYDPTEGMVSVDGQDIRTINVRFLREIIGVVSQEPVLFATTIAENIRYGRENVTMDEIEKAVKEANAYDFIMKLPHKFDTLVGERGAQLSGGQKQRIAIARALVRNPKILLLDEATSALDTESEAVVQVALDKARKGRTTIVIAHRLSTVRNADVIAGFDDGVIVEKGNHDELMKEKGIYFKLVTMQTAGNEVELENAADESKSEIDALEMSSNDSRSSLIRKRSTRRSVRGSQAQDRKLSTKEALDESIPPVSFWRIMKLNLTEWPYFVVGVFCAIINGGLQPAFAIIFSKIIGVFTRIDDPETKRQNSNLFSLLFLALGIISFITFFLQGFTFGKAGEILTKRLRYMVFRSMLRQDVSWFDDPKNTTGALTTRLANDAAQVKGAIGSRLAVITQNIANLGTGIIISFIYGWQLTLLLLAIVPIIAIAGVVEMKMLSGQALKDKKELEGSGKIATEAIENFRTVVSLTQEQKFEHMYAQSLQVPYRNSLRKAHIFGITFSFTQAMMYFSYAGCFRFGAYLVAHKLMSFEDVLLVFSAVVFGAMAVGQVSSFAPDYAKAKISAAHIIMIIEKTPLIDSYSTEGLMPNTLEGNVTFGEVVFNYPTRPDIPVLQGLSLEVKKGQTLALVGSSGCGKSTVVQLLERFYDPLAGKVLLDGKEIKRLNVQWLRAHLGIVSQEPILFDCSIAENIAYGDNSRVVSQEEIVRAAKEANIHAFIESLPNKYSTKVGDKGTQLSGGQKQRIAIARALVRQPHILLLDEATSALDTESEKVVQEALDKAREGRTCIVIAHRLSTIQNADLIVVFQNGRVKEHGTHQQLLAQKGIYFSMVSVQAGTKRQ
T1 sequence (P08183 whole entry): as above

## CC(C)=CCC[C@](C)(O[C@@H]1O[C@H](CO)[C@@H](O)[C@H](O)[C@H]1O)[C@H]1CC[C@]2(C)[C@@H]1[C@H](O)C[C@@H]1[C@@]3(C)CC[C@H](O)C(C)(C)[C@@H]3[C@@H](O)C[C@]12C [F1, ginsenoside F1]
P-gp (MDR1); [6]
  efflux ratio at 2 h, 100 µg/mL: < 2
P-gp (MDR1); [7]
  efflux ratio at 2 h, 100 µg/mL: 1.99
[1]
  Effect of verapamil on efflux ratio / Papp: almost not affected by verapamil
  Effect of SLE on efflux ratio / transport: almost not be affected by SLE
  P-gp substrate classification: almost could not be transported by P-gp
[2]
  Effect of verapamil on transport (efflux ratio): No transport difference
[3]
  Effect of verapamil on intracellular accumulation: almost not affected by verapamil

## CC(C)=CCC[C@](C)(O[C@@H]1O[C@H](CO)[C@@H](O)[C@H](O)[C@H]1O)[C@H]1CC[C@]2(C)[C@@H]1[C@H](O)C[C@@H]1[C@@]3(C)CC[C@H](O)C(C)(C)[C@@H]3[C@@H](O[C@@H]3O[C@H](CO)[C@@H](O)[C@H](O)[C@H]3O)C[C@]12C [Rg1, ginsenoside Rg1]
P-gp (MDR1); [6]
  efflux ratio at 2 h, 100 µg/mL: < 2
P-gp (MDR1); [7]
  efflux ratio at 2 h, 100 µg/mL: 1.16
[1]
  Effect of verapamil on efflux ratio / Papp: almost not affected by verapamil
  Effect of SLE on efflux ratio / transport: almost not be affected by SLE
  P-gp substrate classification: almost could not be transported by P-gp
[2]
  Effect of verapamil on transport (efflux ratio): No transport difference
[3]
  Effect of verapamil on intracellular accumulation: almost not affected by verapamil

## CC(C)=CCC[C@](C)(O[C@@H]1O[C@H](CO)[C@@H](O)[C@H](O)[C@H]1O)[C@H]1CC[C@]2(C)[C@@H]1[C@H](O)C[C@@H]1[C@@]3(C)CC[C@H](O)C(C)(C)[C@@H]3[C@@H](O[C@@H]3O[C@H](CO)[C@@H](O)[C@H](O)[C@H]3O[C@@H]3O[C@@H](C)[C@H](O)[C@@H](O)[C@H]3O)C[C@]12C [Re, ginsenoside Re]
P-gp (MDR1); [6]
  efflux ratio at 2 h, 100 µg/mL: < 2
P-gp (MDR1); [7]
  efflux ratio at 2 h, 100 µg/mL: 2.36
[1]
  Effect of verapamil on efflux ratio / Papp: almost not affected by verapamil
  Effect of SLE on efflux ratio / transport: almost not be affected by SLE
  P-gp substrate classification: almost could not be transported by P-gp
[2]
  Effect of verapamil on transport (efflux ratio): No transport difference
[3]
  Effect of verapamil on intracellular accumulation: almost not affected by verapamil

## CC(C)=CCC[C@](C)(O)[C@H]1CC[C@]2(C)[C@@H]1[C@H](O)C[C@@H]1[C@@]3(C)CC[C@H](O)C(C)(C)[C@@H]3[C@@H](O[C@@H]3O[C@H](CO)[C@@H](O)[C@H](O)[C@H]3O[C@@H]3O[C@@H](C)[C@H](O)[C@@H](O)[C@H]3O)C[C@]12C [Rg2, ginsenoside Rg2]
P-gp (MDR1); [6]
  efflux ratio at 2 h, 100 µg/mL: > 3.5
P-gp (MDR1); [8]
  efflux ratio at 2 h: 1.52
[1]
  Effect of verapamil on efflux ratio / Papp: significantly decrease of ER
  Effect of SLE on efflux ratio / transport: significantly decreased
  P-gp substrate classification: moderate P-gp substrates
[2]
  Effect of verapamil on transport (efflux ratio): No transport difference
  Effect of SLE on transport (AP→BL, BL→AP): No transport difference
[4]; 2.0 µg/mL SLE
  Increase of intracellular concentration by SLE: 1.7 fold
[4]; 10.0 µg/mL SLE
  Increase of intracellular concentration by SLE: 2.1 fold
[3]
  Effect of verapamil on intracellular accumulation: no significant difference
  Effect of SLE on intracellular accumulation: no significant difference
[5]
  efflux ratio at 2 h, 100 µg/mL: 4.26

## CC(C)=CCC[C@](C)(O)[C@H]1CC[C@]2(C)[C@@H]1[C@H](O)C[C@@H]1[C@@]3(C)CC[C@H](O[C@@H]4O[C@H](CO)[C@@H](O)[C@H](O)[C@H]4O[C@@H]4O[C@H](CO)[C@@H](O)[C@H](O)[C@H]4O)C(C)(C)[C@@H]3CC[C@]12C [Rg3, ginsenoside Rg3]
[1]
  Effect of verapamil on efflux ratio / Papp: significantly decrease of ER
  Effect of SLE on efflux ratio / transport: significantly decreased
  P-gp substrate classification: moderate P-gp substrates
[2]
  Effect of verapamil on transport (efflux ratio): No transport difference
  Effect of SLE on transport (AP→BL, BL→AP): No transport difference
[4]; 2.0 µg/mL SLE
  Increase of intracellular concentration by SLE: 2.5 fold
[4]; 10.0 µg/mL SLE
  Increase of intracellular concentration by SLE: 2.9 fold
[3]
  Effect of verapamil on intracellular accumulation: no significant difference
  Effect of SLE on intracellular accumulation: no significant difference
Caco-2 cell monolayer; Caco-2 cells, 10 µM verapamil
  Effect of verapamil on efflux ratio: decreased significantly
Caco-2 cell monolayer; Caco-2 monolayer, SLE 2.0 and 10.0 µg/mL
  Effect of SLE on BL-AP transport / efflux ratio: concentration dependently decrease
Caco-2 cells; 10 µM verapamil
  Effect of verapamil on uptake: significantly enhanced
Caco-2 cells; SLE 2.0 and 10.0 µg/mL, P<0.01
  Effect of SLE on intracellular concentration: concentration dependently increase

## CC(C)=CCC[C@](C)(O)[C@H]1CC[C@]2(C)[C@@H]1[C@H](O)C[C@@H]1[C@@]3(C)CC[C@H](O)C(C)(C)[C@@H]3[C@@H](O[C@@H]3O[C@H](CO)[C@@H](O)[C@H](O)[C@H]3O)C[C@]12C [Rh1, ginsenoside Rh1]
P-gp (MDR1); [6]
  efflux ratio at 2 h, 100 µg/mL: < 2
P-gp (MDR1); [8]
  efflux ratio at 2 h: 1.6
[1]
  Effect of verapamil on efflux ratio / Papp: almost not affected by verapamil
  Effect of SLE on efflux ratio / transport: almost not be affected by SLE
  P-gp substrate classification: almost could not be transported by P-gp
[2]
  Effect of verapamil on transport (efflux ratio): No transport difference
[3]
  Effect of verapamil on intracellular accumulation: almost not affected by verapamil
